Measured values: the NIST ThermoML archive (doi:10.1016/j.jct.2018.08.037)
Several values for one entry are separate records, joined by “and”; a condition that tells them apart may be missing. Equal entries are not always repeated. ± gives the expanded uncertainty stated by the source.

Assay: mn = molality of the nth substance listed, in mol/kg
Details: 298.15 K, 100 kPa, Liquid, Buoyancy - hydrostatic balance

mass density (m1 = 1)	mass density (m1 = 2)	SMILES	mass density (m1 = 1.05)	mass density (m1 = 1.62)	mass density (m1 = 2.21)	mass density (m1 = 2.22)	mass density (m1 = 2.84)	mass density (m1 = 2.86)	mass density (m1 = 3.51)	mass density (m1 = 6.68)
		[Na+].[O-][Cl+3]([O-])([O-])[O-] [sodium perchlorate] + O	1076 ± 14 kg/m3 and 1072 ± 15 kg/m3	1110 ± 14 kg/m3	1148 ± 14 kg/m3	1145 ± 14 kg/m3	1185 ± 16 kg/m3	1180 ± 16 kg/m3	1223 ± 14 kg/m3	1360 ± 14 kg/m3
1043 ± 14 kg/m3 and 1041 ± 14 kg/m3	1081 ± 14 kg/m3	[Na+].[OH-] [sodium hydroxide] + O								
